Three molecules from ChEMBL document CHEMBL5715954, “Silencing c-Myc translation as a therapeutic strategy through targeting PI3Kδ and CK1ε in hematological malignancies” (Blood, 2017) can be followed below.

Holding throughout (parameters): scale not given: the % may be the effect or the level left
The target in experiment [1] is Protein-tyrosine kinase 6 (Homo sapiens) (UniProt Q13882). Description: Inhibition of human BRK assessed as enzyme activity at 1 uM using poly[Glu:Tyr] (4:1) as substrate preincubated for 20 mins followed by [gamma-33P]-ATP addition and measured after 120 mins by radiometric Hot-SpotSM Kinase assay relative to control.
For experiment [2], the target named is Serine/threonine-protein kinase Chk2 (Homo sapiens) (UniProt O96017). Description: Inhibition of human CHK2 assessed as enzyme activity at 1 uM using KKKVSRSGLYRSPSMPENLNRPR as substrate preincubated for 20 mins followed by [gamma-33P]-ATP addition and measured after 120 mins by radiometric Hot-SpotSM Kinase assay relative to control.
Experiment [3] addresses T1, Mitogen-activated protein kinase kinase kinase 7 (Homo sapiens) (UniProt O43318).
T1 sequence (whole entry): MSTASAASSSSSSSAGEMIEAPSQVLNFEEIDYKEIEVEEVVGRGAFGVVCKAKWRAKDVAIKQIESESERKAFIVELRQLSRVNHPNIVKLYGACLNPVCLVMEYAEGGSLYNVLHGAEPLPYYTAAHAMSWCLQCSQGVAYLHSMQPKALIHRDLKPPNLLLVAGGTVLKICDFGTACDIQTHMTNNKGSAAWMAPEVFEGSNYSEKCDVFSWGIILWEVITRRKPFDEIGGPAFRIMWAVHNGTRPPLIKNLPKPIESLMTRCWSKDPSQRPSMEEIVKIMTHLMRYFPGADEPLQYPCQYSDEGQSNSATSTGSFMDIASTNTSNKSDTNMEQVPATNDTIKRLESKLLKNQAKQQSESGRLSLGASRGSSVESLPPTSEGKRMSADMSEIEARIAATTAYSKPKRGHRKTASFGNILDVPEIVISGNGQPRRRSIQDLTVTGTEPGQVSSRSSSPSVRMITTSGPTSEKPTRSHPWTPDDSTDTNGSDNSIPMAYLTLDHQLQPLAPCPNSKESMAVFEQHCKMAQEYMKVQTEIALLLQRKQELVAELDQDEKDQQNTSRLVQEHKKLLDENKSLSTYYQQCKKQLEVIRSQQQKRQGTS
Description: Inhibition of human TAK1 assessed as enzyme activity at 1 uM using casein as substrate preincubated for 20 mins followed by [gamma-33P]-ATP addition and measured after 120 mins by radiometric Hot-SpotSM Kinase assay relative to control.

The target of experiment [4] is Dual specificity testis-specific protein kinase 1 (Homo sapiens) (UniProt Q15569). Description: Inhibition of human TESK1 assessed as enzyme activity at 1 uM using cofilin 2 as substrate preincubated for 20 mins followed by [gamma-33P]-ATP addition and measured after 120 mins by radiometric Hot-SpotSM Kinase assay relative to control.
For experiment [5], the target named is T2, Mitogen-activated protein kinase kinase kinase 19 (Homo sapiens) (UniProt Q56UN5).
T2 sequence (whole entry): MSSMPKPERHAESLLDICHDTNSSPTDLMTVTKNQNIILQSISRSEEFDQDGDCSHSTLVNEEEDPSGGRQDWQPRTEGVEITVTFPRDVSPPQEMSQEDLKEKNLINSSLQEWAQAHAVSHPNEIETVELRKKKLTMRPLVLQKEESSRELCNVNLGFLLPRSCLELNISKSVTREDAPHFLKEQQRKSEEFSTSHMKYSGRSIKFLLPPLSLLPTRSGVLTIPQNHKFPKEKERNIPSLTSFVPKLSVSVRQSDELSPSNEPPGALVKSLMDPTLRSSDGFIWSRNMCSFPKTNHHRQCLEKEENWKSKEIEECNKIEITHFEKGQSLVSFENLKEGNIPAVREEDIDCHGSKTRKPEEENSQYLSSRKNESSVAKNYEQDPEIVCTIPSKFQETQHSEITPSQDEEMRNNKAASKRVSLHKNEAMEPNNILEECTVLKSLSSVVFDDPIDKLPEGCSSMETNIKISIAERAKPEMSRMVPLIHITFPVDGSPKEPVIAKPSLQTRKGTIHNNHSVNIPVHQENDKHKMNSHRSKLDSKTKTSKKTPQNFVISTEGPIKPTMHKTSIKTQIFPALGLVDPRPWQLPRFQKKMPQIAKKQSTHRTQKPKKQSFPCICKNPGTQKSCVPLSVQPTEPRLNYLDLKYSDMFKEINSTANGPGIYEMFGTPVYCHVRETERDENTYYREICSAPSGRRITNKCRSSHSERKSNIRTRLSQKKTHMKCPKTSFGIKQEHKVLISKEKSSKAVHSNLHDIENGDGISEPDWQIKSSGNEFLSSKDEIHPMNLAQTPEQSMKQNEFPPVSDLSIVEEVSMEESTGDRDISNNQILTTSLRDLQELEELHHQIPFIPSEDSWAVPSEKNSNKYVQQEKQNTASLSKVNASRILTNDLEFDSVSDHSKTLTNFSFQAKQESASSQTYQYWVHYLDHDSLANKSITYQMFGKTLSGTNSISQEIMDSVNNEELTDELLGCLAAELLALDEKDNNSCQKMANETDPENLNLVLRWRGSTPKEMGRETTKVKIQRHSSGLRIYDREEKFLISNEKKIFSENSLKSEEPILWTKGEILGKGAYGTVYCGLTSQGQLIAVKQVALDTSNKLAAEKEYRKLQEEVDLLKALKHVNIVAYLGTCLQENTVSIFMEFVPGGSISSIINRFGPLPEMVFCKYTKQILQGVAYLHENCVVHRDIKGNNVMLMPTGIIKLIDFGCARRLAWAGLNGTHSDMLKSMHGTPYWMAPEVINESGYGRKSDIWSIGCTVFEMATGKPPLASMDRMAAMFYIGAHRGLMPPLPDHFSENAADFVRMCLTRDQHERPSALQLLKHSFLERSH
The experiment in a line: Inhibition of human YSK4/MAP3K19 assessed as enzyme activity at 1 uM using myelin basic protein as substrate preincubated for 20 mins followed by [gamma-33P]-ATP addition and measured after 120 mins by radiometric Hot-SpotSM Kinase assay relative to control.

Chain of Dual specificity testis-specific protein kinase 1 (Homo sapiens) (Q15569 whole entry, looked up): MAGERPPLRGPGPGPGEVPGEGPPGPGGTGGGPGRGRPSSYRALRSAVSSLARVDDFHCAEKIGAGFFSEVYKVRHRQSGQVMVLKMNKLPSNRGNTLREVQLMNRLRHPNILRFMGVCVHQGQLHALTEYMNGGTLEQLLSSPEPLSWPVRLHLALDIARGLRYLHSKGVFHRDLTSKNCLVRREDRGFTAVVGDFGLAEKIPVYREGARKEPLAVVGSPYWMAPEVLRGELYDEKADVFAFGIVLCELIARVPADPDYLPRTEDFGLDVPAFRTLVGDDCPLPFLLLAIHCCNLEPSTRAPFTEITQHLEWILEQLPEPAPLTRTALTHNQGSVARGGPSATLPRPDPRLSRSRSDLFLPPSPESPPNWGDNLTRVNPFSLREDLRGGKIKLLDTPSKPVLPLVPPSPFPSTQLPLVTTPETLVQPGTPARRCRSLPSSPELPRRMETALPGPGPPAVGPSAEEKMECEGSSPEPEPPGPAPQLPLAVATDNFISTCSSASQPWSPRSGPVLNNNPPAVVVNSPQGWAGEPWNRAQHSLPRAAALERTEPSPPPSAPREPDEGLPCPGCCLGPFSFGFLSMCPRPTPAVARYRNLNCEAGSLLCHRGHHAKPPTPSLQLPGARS
Chain of Protein-tyrosine kinase 6 (Homo sapiens) (Q13882 whole entry, looked up): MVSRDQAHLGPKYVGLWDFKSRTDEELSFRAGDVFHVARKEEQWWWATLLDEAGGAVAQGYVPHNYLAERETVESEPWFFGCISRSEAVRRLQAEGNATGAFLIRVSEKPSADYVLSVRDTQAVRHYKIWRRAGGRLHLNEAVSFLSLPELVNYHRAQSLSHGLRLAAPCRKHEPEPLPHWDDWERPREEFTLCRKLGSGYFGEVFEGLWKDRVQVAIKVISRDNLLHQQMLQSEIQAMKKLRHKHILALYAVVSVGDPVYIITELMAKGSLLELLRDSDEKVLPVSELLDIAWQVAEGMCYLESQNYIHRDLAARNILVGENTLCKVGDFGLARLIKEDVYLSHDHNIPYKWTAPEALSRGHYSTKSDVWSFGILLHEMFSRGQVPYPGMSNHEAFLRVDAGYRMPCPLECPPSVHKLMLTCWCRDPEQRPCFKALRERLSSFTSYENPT
Chain of Serine/threonine-protein kinase Chk2 (Homo sapiens) (O96017 whole entry): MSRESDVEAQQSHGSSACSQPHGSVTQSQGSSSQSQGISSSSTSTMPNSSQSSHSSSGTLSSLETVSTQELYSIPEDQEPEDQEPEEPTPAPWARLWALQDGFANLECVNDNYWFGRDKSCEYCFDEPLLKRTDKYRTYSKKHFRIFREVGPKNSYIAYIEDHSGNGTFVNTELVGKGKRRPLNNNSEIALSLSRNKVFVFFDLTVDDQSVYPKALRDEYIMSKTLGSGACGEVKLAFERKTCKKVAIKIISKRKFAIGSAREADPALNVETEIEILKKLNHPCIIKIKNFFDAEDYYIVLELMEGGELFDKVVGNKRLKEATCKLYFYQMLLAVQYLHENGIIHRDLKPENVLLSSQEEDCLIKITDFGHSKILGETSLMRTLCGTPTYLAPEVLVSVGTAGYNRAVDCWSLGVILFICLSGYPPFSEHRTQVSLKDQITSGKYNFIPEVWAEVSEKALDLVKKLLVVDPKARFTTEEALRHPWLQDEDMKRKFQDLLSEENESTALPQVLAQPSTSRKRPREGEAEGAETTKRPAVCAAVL

Consider `C[C@H](Nc1ncnc2nc[nH]c12)c1cc2cccc(Cl)c2c(=O)n1-c1ccccc1`, for which the Activity is 98.3% in experiment [1]; 91.3% in experiment [2]; 98.7% in experiment [3]; 102% in experiment [4]; 91.6% in experiment [5].
Taken in the same sequence, the figures for `CC[C@H](Nc1ncnc2[nH]cnc12)c1nc2cccc(F)c2c(=O)n1-c1ccccc1` were 97.6%, 93.7%, 102%, 98.7% and 90.5%.
Taken in the same sequence, the figures for `CC(C)Oc1ccc(-c2nn([C@@H](C)c3oc4ccc(F)cc4c(=O)c3-c3cccc(F)c3)c3ncnc(N)c23)cc1F` [UMBRALISIB] were 97.9%, 93.2%, 99%, 98% and 92.4%.
